Data on 1 compound can be found in patent US20210361639A1, “SOLID COMPOSITIONS OF ACTIVES, PROCESSES FOR PREPARING SAME AND USES OF SUCH SOLID COMPOSITIONS” (The University of Liverpool, priority 2018, published 2021).

The AUC(0-t) is exposure summed from dosing to a finite time, without extrapolation to infinity. Read a high AUC(0-t) as more exposure. By Cmax is commonly meant the highest concentration seen after dosing. As usually defined, the Tmax is the time at which the peak concentration occurs.

Data set [1] in a line: Multiple oral dose (every 6 hours) pharmacokinetics of atazanavir. The data set is classed as in vivo, Wistar rats. The settings on record: multiple oral dose 10 mg/kg atazanavir every 6 hours, steady state, rat plasma. As to the method: All animal work was conducted in accordance with the Animals (Scientific Procedures) Act 1986 (ASPA) implemented by the UK Home Office. The rodents were housed with environmental enrichment and a 12 h light/dark cycle at 21° C.±2° C. Free access to food and water was provided at all times. Following 7-days acclimatisation, adult male Wistar rats (280-330 g) were dosed with 10 mg Kg^−1 atazanavir at 5 μCi/mg, either as a conventional [^3H]-atazanavir preparation (<5% DMSO) or as a [^3H]^ATVSDNF68/T20 nanodispersion using a 7-cm curved gavage needle. Subsequent doses were administered at 6 hour intervals. Subsequently, trough blood samples were collected (0.15 ml) every 12 h post-dosing from the lateral tail vein. Steady state PK blood samples were taken at 60, 61, 62, 62.5, 63, 64 and 66 h post first dose. At 66 h, the rats were sacrificed using cardiac puncture under terminal anaesthesia (isoflurane/oxygen), followed by immediate exsanguination of blood from the heart. Subsequently, an overdose of sodium pentobarbitone was administered using the same in situ puncture needle. Blood samples were collected in heparinised Eppendorf tubes and centrifuged at 3,000 rpm for 5 min. The plasma layer was collected and stored at −20° C. prior to analysis.

Data set [2] in a line: Single oral dose pharmacokinetics of atazanavir. The settings on record: male, Wistar, rat, in vivo, 10 mg/kg. Also noted: species or system Wistar rats. As to the method: All animal work was conducted in accordance with the Animals (Scientific Procedures) Act 1986 (ASPA) implemented by the UK Home Office. The rodents were housed with environmental enrichment and a 12 h light/dark cycle at 21° C.±2° C. Free access to food and water was provided at all times during acclimatisation. Following 7-days acclimatisation, adult male Wistar rats (280-330 g) were fasted overnight and dosed with 10 mg Kg^−1 atazanavir at 10 μCi/mg, either as a conventional [^3H]-atazanavir preparation (<5% DMSO) or as a [^3H]-^ATVSDNF68/T20 nanodispersion using a 7-cm curved gavage needle. Subsequently, blood samples were collected (0.2 ml) at 1, 2, 2.5, 3, 6 and 12 h post-dosing from the tail vein. At 24 h, the rats were sacrificed using cardiac puncture under terminal anaesthesia (isoflurane/oxygen), followed by immediate exsanguination of blood from the heart. Subsequently, an overdose of sodium pentobarbitone was administered using the same in situ puncture needle. Blood samples were collected in heparinised Eppendorf tubes and centrifuged at 3,000 rpm for 5 min. The plasma layer was collected and stored at −20° C. prior to analysis.

Molecules are shown by their SMILES.

In the case of `COC(=O)N[C@H](C(=O)N[C@@H](Cc1ccccc1)[C@@H](O)CN(Cc1ccc(-c2ccccn2)cc1)NC(=O)[C@@H](NC(=O)OC)C(C)(C)C)C(C)(C)C` [Aqueous atazanavir, atazanavir], in data set [1] (male, Wistar), the AUC(0-t) is 15500 ng·h/mL, the Cmax was 3090 ng/mL and the Tmax came out at 1 h. The Cmin in data set [1] is 1799 ng/mL. Besides, in data set [2], the area under the curve AUC(0-t) is 60400 ng·h/mL, the Cmax turned out to be 4870 ng/mL, the Cmin worked out at 1986 ng/mL and the Tmax came to 2 h.
